In PubChem BioAssay AID1259411 (Chemical Carcinogenesis Research Information System (CCRIS), 2018):
Active and inactive are the calls of the source. No rule for the calls is given here.

Tested on: rodent carcinogenicity bioassays, tumor incidence
Test: CCRIS carcinogenicity studies
How it was run: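 NCI-built, expert-reviewed records of carcinogenicity and related test outcomes (mutagenicity, tumor promotion/inhibition) compiled from published and report sources, historical span 1985-2011, not updated.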

SMILES: CC(=O)[C@H]1CC[C@H]2[C@@H]3CCC4=CC(=O)CC[C@]4(C)[C@H]3CC[C@]12C
- carcinogen call (Species: MOUSE, Route: SUBCUTANEOUS, Tumor Site: Type of Lesion: MAMMARY GLAND, OVARIES, UTERUS, Tumor Site: Type of Lesion: MAMMARY GLAND, OVARIES, UTERUS): active; positive

SMILES: [2H]c1c([2H])c([2H])c2c(C([2H])([2H])[2H])c3c(c([2H])c([2H])c4c([2H])c([2H])c([2H])c([2H])c43)c(C([2H])([2H])[2H])c2c1[2H]
- carcinogen call (Species: MOUSE, Strain/Sex: SWISS/FEMALE, Route: SUBCUTANEOUS, Dose: IN OLIVE OIL 1/MO FOR 3 MO FOR A TOTAL DOSE OF 0, 1.5 MG (STUDY DURATION: 395 D), Tumor Site: Type of Lesion: INJECTION SITE: FIBROBLASTIC SARCOMA): active; positive
- carcinogen call (Species: MOUSE, Strain/Sex: SWISS/MALE, Route: SUBCUTANEOUS, Dose: IN OLIVE OIL 1/MO FOR 3 MO FOR A TOTAL DOSE OF 0, 1.5 MG (STUDY DURATION: 395 D), Tumor Site: Type of Lesion: INJECTION SITE: FIBROBLASTIC SARCOMA): active; positive

SMILES: CNc1ccc(N)cc1
- carcinogen call (Species: MOUSE, Strain/Sex: B6C3F1/MALE, Route: INTRAPERITONEAL, Dose: 0, 0.15 UMOL/G ONCE IN SODIUM ACETATE BUFFER (STUDY DURATION: 10 MO)): inactive; negative

SMILES: CNN
- carcinogen call (Species: DOG, Strain/Sex: BEAGLE/FEMALE, Route: INHALATION, Dose: 0, 0.2, 2 PPM 6 HR/D 5 D/WK FOR 1 YR (STUDY DURATION: 6 YR), Dose: 0, 0.2, 2 PPM 6 HR/D 5 D/WK FOR 1 YR (STUDY DURATION: 6 YR)): inactive; negative
- carcinogen call (Species: DOG, Strain/Sex: BEAGLE/MALE, Route: INHALATION, Dose: 0, 0.2, 2 PPM 6 HR/D 5 D/WK FOR 1 YR (STUDY DURATION: 6 YR), Dose: 0, 0.2, 2 PPM 6 HR/D 5 D/WK FOR 1 YR (STUDY DURATION: 6 YR)): inactive; negative
- carcinogen call (Species: HAMSTER, Route: ORAL, Tumor Site: Type of Lesion: LIVER): active; positive
- carcinogen call (Species: HAMSTER, Strain/Sex: SYRIAN/MALE, Route: INHALATION, Dose: 0, 0.2, 2, 5 PPM 6 HR/D 5 D/WK FOR 1 YR (STUDY DURATION: 1 YR), Dose: 0, 0.2, 2, 5 PPM 6 HR/D 5 D/WK FOR 1 YR (STUDY DURATION: 1 YR), Tumor Site: Type of Lesion: NASAL CAVITY: ADENOMA): active; positive
- carcinogen call (Species: MOUSE, Route: ORAL, Tumor Site: Type of Lesion: LUNG): active; positive
- carcinogen call (Species: MOUSE, Strain/Sex: C57BL/FEMALE, Route: INHALATION, Dose: 0, 0.02, 0.2, 2, 5 PPM 6 HR/D 5 D/WK FOR 1 YR (STUDY DURATION: 2 YR), Dose: 0, 0.02, 0.2, 2, 5 PPM 6 HR/D 5 D/WK FOR 1 YR (STUDY DURATION: 2 YR), Tumor Site: Type of Lesion: LUNG: ADENOMA, LIVER: ADENOMA, CARCINOMA, HEMATOPOIETIC SYSTEM: HEMANGIOMA, Tumor Site: Type of Lesion: LUNG: ADENOMA, LIVER: ADENOMA, CARCINOMA, HEMATOPOIETIC SYSTEM: HEMANGIOMA): active; positive
- carcinogen call (Species: MOUSE, Strain/Sex: SWISS/FEMALE, Route: ORAL, Dose: 0.001% SOLUTION IN DRINKING WATER FOR LIFE (DAILY INTAKE: 0.078 MG) (STUDY DURATION: LIFETIME), Tumor Site: Type of Lesion: LUNG: ADENOMA, ADENOCARCINOMA, HEMATOPOIETIC SYSTEM: MALIGNANT LYMPHOMA, MAMMARY GLAND: ADENOCARCINOMA, Tumor Site: Type of Lesion: LUNG: ADENOMA, ADENOCARCINOMA, HEMATOPOIETIC SYSTEM: MALIGNANT LYMPHOMA, MAMMARY GLAND: ADENOCARCINOMA): active; positive
- carcinogen call (Species: MOUSE, Strain/Sex: SWISS/MALE, Route: ORAL, Dose: 0.001% SOLUTION IN DRINKING WATER FOR LIFE (DAILY INTAKE: 0.102 MG) (STUDY DURATION: LIFETIME), Tumor Site: Type of Lesion: LUNG: ADENOMA, ADENOCARCINOMA, HEMATOPOIETIC SYSTEM: MALIGNANT LYMPHOMA): active; positive
- carcinogen call (Species: RAT, Strain/Sex: F344/FEMALE, Route: INHALATION, Dose: 0, 0.02, 0.2, 2, 5 PPM 6 HR/D 5 D/WK FOR 1 YR (STUDY DURATION: 2 YR), Dose: 0, 0.02, 0.2, 2, 5 PPM 6 HR/D 5 D/WK FOR 1 YR (STUDY DURATION: 2 YR)): inactive; negative
- carcinogen call (Species: RAT, Strain/Sex: F344/MALE, Route: INHALATION, Dose: 0, 0.02, 0.2, 2, 5 PPM 6 HR/D 5 D/WK FOR 1 YR (STUDY DURATION: 2 YR), Dose: 0, 0.02, 0.2, 2, 5 PPM 6 HR/D 5 D/WK FOR 1 YR (STUDY DURATION: 2 YR)): inactive; negative

SMILES: Cc1[nH]cnc1CSCCN=C(NC#N)N(C)N=O
- carcinogen call (Species: MOUSE, Strain/Sex: B6C3F1/FEMALE, Route: ORAL, Dose: 0, 18.8, 190 MG/D IN DRINKING WATER FOR LIFE ADMINISTERED TO MICE OF MOTHERS EXPOSED TO SAME DOSES THROUGH PREGNANCY AND, Dose: 0, 18.8, 190 MG/D IN DRINKING WATER FOR LIFE ADMINISTERED TO MICE OF MOTHERS EXPOSED TO SAME DOSES THROUGH PREGNANCY AND): inactive; negative
- carcinogen call (Species: MOUSE, Strain/Sex: B6C3F1/MALE, Route: ORAL, Dose: 0, 18.8, 190 MG/D IN DRINKING WATER FOR LIFE ADMINISTERED TO MICE OF MOTHERS EXPOSED TO SAME DOSES THROUGH PREGNANCY AND, Dose: 0, 18.8, 190 MG/D IN DRINKING WATER FOR LIFE ADMINISTERED TO MICE OF MOTHERS EXPOSED TO SAME DOSES THROUGH PREGNANCY AND): inactive; negative
- carcinogen call (Species: MOUSE, Strain/Sex: C57BL/FEMALE, Route: ORAL, Dose: 0, 18.8, 190 MG/D IN DRINKING WATER BEGINNING AT 7-8 WK OF AGE AND CONTINUING FOR STUDY DURATION (STUDY DURATION: LIFE S, Dose: 0, 18.8, 190 MG/D IN DRINKING WATER BEGINNING AT 7-8 WK OF AGE AND CONTINUING FOR STUDY DURATION (STUDY DURATION: LIFE S): inactive; negative
- carcinogen call (Species: RAT, Strain/Sex: F344/FEMALE, Route: ORAL, Dose: 0, 150 MG/L IN DRINKING WATER 5D/WK FOR 106 WK FOR A TOTAL DOSE OF 0, 1600 MG (STUDY DURATION: 131 WK), Dose: 0, 150 MG/L IN DRINKING WATER 5D/WK FOR 106 WK FOR A TOTAL DOSE OF 0, 1600 MG (STUDY DURATION: 131 WK)): inactive; negative
- carcinogen call (Species: RAT, Strain/Sex: F344/MALE, Route: ORAL, Dose: 0, 150 MG/L IN DRINKING WATER 5D/WK FOR 106 WK FOR A TOTAL DOSE OF 0, 1600 MG (STUDY DURATION: 131 WK), Dose: 0, 150 MG/L IN DRINKING WATER 5D/WK FOR 106 WK FOR A TOTAL DOSE OF 0, 1600 MG (STUDY DURATION: 131 WK)): inactive; negative
- carcinogen call (Species: RAT, Strain/Sex: SPRAGUE-DAWLEY/FEMALE, Route: GAVAGE, Dose: 0, 50, 500 MG/KG 2/WK FOR 1 YR (STUDY DURATION: LIFETIME), Dose: 0, 50, 500 MG/KG 2/WK FOR 1 YR (STUDY DURATION: LIFETIME)): inactive; negative
- carcinogen call (Species: RAT, Strain/Sex: SPRAGUE-DAWLEY/MALE, Route: GAVAGE, Dose: 0, 50, 500 MG/KG 2/WK FOR 1 YR (STUDY DURATION: LIFETIME), Dose: 0, 50, 500 MG/KG 2/WK FOR 1 YR (STUDY DURATION: LIFETIME)): inactive; negative

SMILES: OC[C@@H](O)[C@@H](O)[C@H](O)[C@H](O)CO[C@H]1O[C@H](CO)[C@@H](O)[C@H](O)[C@H]1O
- carcinogen call (Species: MOUSE, Strain/Sex: SWISS/FEMALE, Route: ORAL, Dose: 0, 2.5, 5, 10% IN DIET FOR LIFE (PARENTS FED DIETS BEFORE AND AFTER PREGNANCY AND DURING LACTATION) (STUDY DURATION: 104, Dose: 0, 2.5, 5, 10% IN DIET FOR LIFE (PARENTS FED DIETS BEFORE AND AFTER PREGNANCY AND DURING LACTATION) (STUDY DURATION: 104): inactive; negative
- carcinogen call (Species: MOUSE, Strain/Sex: SWISS/MALE, Route: ORAL, Dose: 0, 2.5, 5, 10% IN DIET FOR LIFE (PARENTS FED DIETS BEFORE AND AFTER PREGNANCY AND DURING LACTATION) (STUDY DURATION: 94, Dose: 0, 2.5, 5, 10% IN DIET FOR LIFE (PARENTS FED DIETS BEFORE AND AFTER PREGNANCY AND DURING LACTATION) (STUDY DURATION: 94): inactive; negative
- carcinogen call (Species: RAT, Strain/Sex: WISTAR/FEMALE, Route: ORAL, Dose: 0, 2.5, 5, 10% IN DIET FOR LIFE (PARENTS FED DIETS BEFORE AND AFTER PREGNANCY AND DURING LACTATION) (STUDY DURATION: 130, Dose: 0, 2.5, 5, 10% IN DIET FOR LIFE (PARENTS FED DIETS BEFORE AND AFTER PREGNANCY AND DURING LACTATION) (STUDY DURATION: 130): inactive; negative
- carcinogen call (Species: RAT, Strain/Sex: WISTAR/MALE, Route: ORAL, Dose: 0, 2.5, 5, 10% IN DIET FOR LIFE (PARENTS FED DIETS BEFORE AND AFTER PREGNANCY AND DURING LACTATION) (STUDY DURATION: 128, Dose: 0, 2.5, 5, 10% IN DIET FOR LIFE (PARENTS FED DIETS BEFORE AND AFTER PREGNANCY AND DURING LACTATION) (STUDY DURATION: 128): inactive; negative
